According to US20240196893A1, “LOW TOXICITY COMPOUNDS FOR USE AS INSECTICIDES AND METHOD OF PRODUCING SAID COMPOUNDS” (UNIVERSIDADE DO PORTO, priority 2021, published 2024):

How the values were obtained:
[1] = system: insect effector caspase DRICE; test: Caspase-like activity in insect cells (DEVD-aminoluciferin substrate); type: cell-based; conditions: 50 μg/mL
Method: The compound (6a) of the present application presents a mechanism of action distinct of the commercial insecticide chlorpyrifos, which may be of interest as a strategy to overcome pesticide resistances. Specifically, the compound (6a) is capable of activating insect effector caspase DRICE (involved in the process of cell death), while the commercial insecticide is unable to trigger this effect and has no impact in this target (FIG. 4). This was evaluated by incubating cells with the same cellular density with the proluminescent substrate DEVD-aminoluciferin, which becomes […] after cleavage by effector caspases, being detected subsequently in a luminescence detector.

Sf9 cells [2] = test: Viability of Sf9 insect cells (resazurin); type: cell-based, Spodoptera frugiperda
Description: Results represent the mean+SEM of at least three independent experiments, each of them performed in triplicate: *p<0.05, **p<0.01, ***p<0.001.

human keratinocytes = test: Viability of human keratinocytes (resazurin); type: cell-based; conditions: 50 μg/mL, 24 hours
Method: Results represent the mean±SEM of at least three independent experiments, each of them performed in triplicate: **<0.01, ***p<0.001.
The compound (6a) of the present application has no toxicity in human cells, contrarily to the ginkgolic acid (1), or the synthetic commercial insecticide evaluated as benchmark (chlorpyrifos) (FIG. 3), as assessed by cultivating human keratinocytes in the same cell density, exposing them to either compound (6a) or chlorpyrifos at the same concentration (50 μg/mL) and assessing cell viability after 24 hours using resazurin.

Sf9 cells [3] = conditions: Sf9 insect cells, 100 μg/mL, prior studies; cited from earlier work

SMILES | caspase-like activity, increase over basal level [1] | loss of cell viability relative to chlorpyrifos (Sf9 cells [2]; Spodoptera frugiperda cells, 100 μg/mL, 24 hours, resazurin) | loss of cell viability (human keratinocytes) | activity in Sf9 insect cells (compared with compound 1) (Sf9 cells [2]; Sf9 insect cells) | loss of viability (Sf9 cells [3])
CCCCCCCCCCCCNc1ccccc1C(=O)O [compound 6a, 2-(dodecylamino) benzoic acid] | 400% | more than the triple |  |  | 
CCOP(=S)(OCC)Oc1nc(Cl)c(Cl)cc1Cl [chlorpyrifos, O,O-diethyl O-(3,5,6-trichloropyridin-2-yl) phosphorothioate] | no statistically significant changes |  | ca. 20% |  | 
CCCCCCC=CCCCCCCCCCc1cccc(OC)c1C(=O)O [compound 2, 2-(heptadec-10-en-1-yl)-6-methoxybenzoic acid] |  |  |  | lower activity | 
CCCCCCC=CCCCCCCCCCc1cccc(O)c1C(=O)O [compound 1, 2-(heptadec-10-en-1-yl)-6-hydroxybenzoic acid] | no increase |  |  |  | ca. 75%
